Patent US6972296B2, “Carboxylic acid derivatives that inhibit the binding of integrins to their receptors” (Encysive Pharmaceuticals Inc., priority 1999, dated 2005)
Values belong to the molecule of their own block, whether it stands above or below them.

Molecular target: T1, α4β1 integrin (Homo sapiens, UniProt P05556+P13612)
T1 construct: endogenous in cells; host or cells: Ramos cells
Experiment: Adhesion of calcein-labeled Ramos cells to CS1 (fibronectin) peptide conjugated ovalbumin
Type: cell-based
Settings: Ramos cell adhesion to CS1 conjugated ovalbumin
Protocol: A procedure in which a 26-amino acid peptide containing the CS1 sequence of fibronectin with an N-terminal Cys ([…]) was coupled to maleimide activated ovalbumin was used to determine the efficacy of the compounds synthesized. Bovine serum albumin (BSA) and CS1 conjugated ovalbumin were coated onto 96-well polystyrene plates at 0.5 μg/ml in TBS (50 mM TRIS, pH 7.5; 150 mM NaCl) at 4° C. for 16 hours. The plates were washed three times with TBS and blocked with TBS containing 3% BSA at room temperature for 4 hours. Blocked plates were washed three times in binding buffer (TBS; 1 mM MgCl2; 1 mM CaCl2; 1 mM MnCl2) prior to assay. Ramos cells fluorescently labeled with calcein AM were resuspended in binding buffer (10^7 cells/ml) and diluted 1:2 with same buffer with or without compound. 100 μM of compound was added. The cells were added immediately to the wells (2.5×10^5 cells/well) and incubated for 30 minutes at 37° C. Following three washes with binding buffer, adherent cells were lysed and quantitated using a fluorometer. IC50 is defined as the dose required to give 50% inhibition, measured in μM for Tables 2 and 4. The lower the IC50 value and the greater the percentage of inhibition, the more efficient the compound is at prevention of cell adhesion.

[1] = Table 5, dose required to give 50% inhibition
[2] = Table 7, dose required to give 50% inhibition

T1 sequence (P13612 34-1032): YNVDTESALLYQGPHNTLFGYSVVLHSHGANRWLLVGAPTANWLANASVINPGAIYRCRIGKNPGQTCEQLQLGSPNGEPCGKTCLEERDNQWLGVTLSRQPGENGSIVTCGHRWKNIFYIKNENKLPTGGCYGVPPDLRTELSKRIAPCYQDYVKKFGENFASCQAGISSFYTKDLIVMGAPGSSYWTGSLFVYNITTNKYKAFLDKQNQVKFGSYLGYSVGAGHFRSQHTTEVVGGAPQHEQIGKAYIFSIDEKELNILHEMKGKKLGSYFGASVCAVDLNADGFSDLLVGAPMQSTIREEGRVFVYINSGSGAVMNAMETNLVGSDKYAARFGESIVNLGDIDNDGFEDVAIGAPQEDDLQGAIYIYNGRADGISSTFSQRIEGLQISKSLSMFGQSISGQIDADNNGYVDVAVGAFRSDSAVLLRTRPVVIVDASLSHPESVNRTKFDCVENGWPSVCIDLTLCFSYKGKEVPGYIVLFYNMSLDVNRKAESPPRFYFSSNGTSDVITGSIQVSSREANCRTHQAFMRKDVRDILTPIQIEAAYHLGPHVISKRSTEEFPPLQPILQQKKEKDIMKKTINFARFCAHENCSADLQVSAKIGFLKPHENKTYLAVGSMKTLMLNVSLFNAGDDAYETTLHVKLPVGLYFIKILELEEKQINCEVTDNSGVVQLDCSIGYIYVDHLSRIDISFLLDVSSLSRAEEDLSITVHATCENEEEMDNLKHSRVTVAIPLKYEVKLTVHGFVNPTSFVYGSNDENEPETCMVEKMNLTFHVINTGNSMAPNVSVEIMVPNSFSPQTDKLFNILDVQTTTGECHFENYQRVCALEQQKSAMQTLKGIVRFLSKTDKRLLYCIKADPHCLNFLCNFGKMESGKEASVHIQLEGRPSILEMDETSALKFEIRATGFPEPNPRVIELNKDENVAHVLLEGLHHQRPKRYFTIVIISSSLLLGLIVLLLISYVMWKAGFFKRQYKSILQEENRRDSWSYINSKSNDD
T1 sequence (P05556 21-798): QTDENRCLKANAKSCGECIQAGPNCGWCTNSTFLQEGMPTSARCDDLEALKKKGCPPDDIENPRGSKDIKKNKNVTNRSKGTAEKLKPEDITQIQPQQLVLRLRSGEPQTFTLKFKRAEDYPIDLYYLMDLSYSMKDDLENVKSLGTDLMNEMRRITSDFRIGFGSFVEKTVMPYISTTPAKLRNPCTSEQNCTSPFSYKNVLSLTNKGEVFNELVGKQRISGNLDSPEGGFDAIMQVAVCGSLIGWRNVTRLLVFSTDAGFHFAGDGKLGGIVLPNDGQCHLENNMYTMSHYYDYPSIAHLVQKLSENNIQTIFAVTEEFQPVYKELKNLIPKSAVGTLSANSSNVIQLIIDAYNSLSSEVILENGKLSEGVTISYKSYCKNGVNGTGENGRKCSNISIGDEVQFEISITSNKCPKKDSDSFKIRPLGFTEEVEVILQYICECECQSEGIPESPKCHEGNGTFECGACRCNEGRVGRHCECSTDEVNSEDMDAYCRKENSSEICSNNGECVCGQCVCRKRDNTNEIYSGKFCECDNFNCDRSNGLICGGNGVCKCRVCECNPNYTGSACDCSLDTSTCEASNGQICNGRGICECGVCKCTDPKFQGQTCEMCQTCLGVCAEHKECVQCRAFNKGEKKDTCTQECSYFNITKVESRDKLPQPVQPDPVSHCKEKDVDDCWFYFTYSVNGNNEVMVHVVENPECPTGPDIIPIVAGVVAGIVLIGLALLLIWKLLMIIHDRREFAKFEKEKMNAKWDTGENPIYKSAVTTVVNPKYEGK

- IC50 [1]: 10 nM
SMILES: Cc1ccc([C@H](CC(=O)O)NC(=O)Nc2c(NC(=O)NC(C)(C)C)ccn(Cc3ccccc3Cl)c2=O)cc1 [(3S)-3-[({[4-{[(tert-butylamino)carbonyl]amino}-1-(2-chlorobenzyl)-2-oxo-1,2-dihydropyridin-3-yl]amino}carbonyl)amino]-3-(4-methylphenyl)propanoic acid]

- IC50 [1]: 20 nM
SMILES: Cc1ccc([C@H](CC(=O)O)NC(=O)Nc2c(O)c(C)cn(Cc3ccc(Cl)cc3Cl)c2=O)cc1

- IC50 [2]: 20 nM
SMILES: Cc1ccc([C@H](CC(=O)O)NC(=O)Nc2c(O)c(C)cn(Cc3c(Cl)cccc3OCC3CCCC3)c2=O)cc1

- IC50 [1]: 50 nM
SMILES: O=C(O)C[C@H](NC(=O)Nc1c(O)ccn(Cc2ccccc2Cl)c1=O)c1cc(F)cc(F)c1

- IC50 [1]: 35 nM
SMILES: COc1c(C)cc([C@H](CC(=O)O)NC(=O)Nc2c(O)ccn(Cc3ccccc3Cl)c2=O)cc1C

- IC50 (Table 6, 30 minutes at 37° C.): 15 nM
SMILES: Cc1ccc([C@H](CC(=O)O)NC(=O)Nc2c(O)c(C)cn(Cc3ccccc3Cl)c2=O)cc1C

- IC50 (Table 3, 30 minutes at 37° C.): 30 nM
SMILES: Cc1ccc([C@H](CC(=O)O)NC(=O)Nc2c(C)ccn(Cc3ccc(Cl)cc3Cl)c2=O)cc1

- IC50 [2]: 2 nM
SMILES: CCOc1cccc([C@H](CC(=O)O)NC(=O)Nc2c(O)c3c(n(Cc4c(Cl)cccc4OCC)c2=O)CCC3)c1

- IC50 [2]: 10 nM
SMILES: Cc1ccc([C@H](CC(=O)O)NC(=O)Nc2c(O)c(C)cn(Cc3c(Cl)cccc3OCc3ccccc3)c2=O)cc1

- IC50 [2]: 23 nM
SMILES: COc1ccc(-c2ccc([C@H](CC(=O)O)NC(=O)Nc3c(O)c(C)cn(Cc4ccccc4Cl)c3=O)cc2)cc1

- IC50 (Table 4, 30 minutes at 37° C.): 300 nM
SMILES: O=C(O)C[C@H](NC(=O)Nc1cccn(Cc2ccccc2Cl)c1=O)c1ccc2c(c1)CCC2

- IC50 (Table 6, 30 minutes at 37° C.): 3 nM
SMILES: CCOc1ccc([C@H](CC(=O)O)NC(=O)Nc2c(O)c(C)nn(Cc3ccccc3Cl)c2=O)cc1OCC

- IC50 (Table 4, 30 minutes at 37° C.): 100 nM
SMILES: Cc1ccc([C@H](CC(=O)O)NC(=O)Nc2cn(Cc3ccccc3Cl)ccc2=O)cc1

- IC50 (Table 4, 30 minutes at 37° C.): 5000 nM
SMILES: O=C(O)C[C@H](NC(=O)Nc1cccn(Cc2cc(Cl)cc(Cl)c2)c1=O)c1ccc2c(c1)OCO2

- IC50 (Table 4, 30 minutes at 37° C.): 2500 nM
SMILES: O=C(O)C[C@H](NC(=O)Nc1cccn(Cc2cccs2)c1=O)c1cccc(C(F)(F)F)c1

- IC50 [1]: 0.6 nM
SMILES: CCOc1ccc([C@H](CC(=O)O)NC(=O)Nc2c(O)c(C)cn(Cc3ccccc3Cl)c2=O)cc1OCC [(3S)-3-[({[1-(2-chlorobenzyl)-4-hydroxy-5-methyl-2-oxo-1,2-dihydropyridin-3-yl]amino}carbonyl)amino]-3-(3,4-diethoxyphenyl)propanoic acid]

- IC50 [1]: 220 nM
SMILES: O=C(O)C[C@H](NC(=O)Nc1c(O)ccn(Cc2ccccc2Cl)c1=O)c1cc(C(F)(F)F)cc(C(F)(F)F)c1

- IC50 (Table 4, 30 minutes at 37° C.): 3000 nM
SMILES: Cc1ccc([C@H](CC(=O)O)NC(=O)Nc2cccn(Cc3c(C)noc3C)c2=O)cc1

- IC50 (Table 4, 30 minutes at 37° C.): 3000 nM
SMILES: Cc1ccc([C@H](CC(=O)O)NC(=O)Nc2cccn(Cc3ccc(C(F)(F)F)cc3F)c2=O)cc1

- IC50 (Table 4, 30 minutes at 37° C.): 90 nM
SMILES: Cc1ccc([C@H](CC(=O)O)NC(=O)Nc2cnc(C)n(Cc3ccccc3Cl)c2=O)cc1

- IC50 [2]: 1 nM
SMILES: CCN(c1cccc([C@H](CC(=O)O)NC(=O)Nc2c(O)c3c(n(Cc4c(C)cccc4Cl)c2=O)CCC3)c1)S(C)(=O)=O [(3S)-3-{[({1-[(2-chloro-6-methylphenyl)methyl]-4-hydroxy-2-oxo-2,5,6,7-tetrahydro-1H-cyclopenta[b]pyridin-3-yl}amino)carbonyl]amino}-3-{3-[ethyl(methylsulfonyl)amino]phenyl}propanoic acid]

- IC50 [1]: 0.8 nM
SMILES: CCOc1ccc([C@H](CC(=O)O)NC(=O)Nc2c(O)ccn(Cc3ccccc3Cl)c2=O)cc1OCC [(3S)-3-[({[1-(2-chlorobenzyl)-4-hydroxy-2-oxo-1,2-dihydropyridin-3-yl]amino}carbonyl)amino]-3-(3,4-diethoxyphenyl)propanoic acid]

- IC50 (Table 3, 30 minutes at 37° C.): 10 nM
SMILES: Cc1ccc([C@H](CC(=O)O)NC(=O)Nc2c(N)cc(C)n(Cc3ccccc3Cl)c2=O)cc1 [(3S)-3-{[({4-amino-1-[(2-chlorophenyl)methyl]-6-methyl-2-oxo-1,2-dihydro-3-pyridinyl}amino)carbonyl]amino}-3-(4-methylphenyl)propanoic acid]

- IC50 (Table 4, 30 minutes at 37° C.): 300 nM
SMILES: O=C(O)C[C@H](NC(=O)Nc1cccn(Cc2ccccc2Cl)c1=O)c1ccc2c(c1)OCO2

- IC50 (Table 4, 30 minutes at 37° C.): 25 nM
SMILES: CCc1ccc([C@H](CC(=O)O)NC(=O)Nc2c(O)ccn(Cc3ccccc3Cl)c2=O)cc1

- IC50 [1]: 3 nM
SMILES: CCCOc1cccc([C@H](CC(=O)O)NC(=O)Nc2c(O)ccn(Cc3ccccc3Cl)c2=O)c1

- IC50 [2]: 6 nM
SMILES: CCCOc1ccc(Cl)c(Cn2cc(C)c(O)c(NC(=O)N[C@@H](CC(=O)O)c3ccc(C)cc3)c2=O)c1

- IC50 (Table 6, 30 minutes at 37° C.): 3 nM
SMILES: CC(C)Oc1cccc([C@H](CC(=O)O)NC(=O)Nc2c(O)ccn(Cc3ccccc3Cl)c2=O)c1 [(3S)-3-[({[1-(2-chlorobenzyl)-4-hydroxy-2-oxo-1,2-dihydropyridin-3-yl]amino}carbonyl)amino]-3-(3-isopropoxyphenyl)propanoic acid]

- IC50 (Table 6, 30 minutes at 37° C.): 3 nM
SMILES: CC(C)Oc1cccc([C@H](CC(=O)O)NC(=O)Nc2c(O)c3c(n(Cc4ccccc4Cl)c2=O)CCC3)c1 [(3S)-3-[({[1-(2-chlorobenzyl)-4-hydroxy-2-oxo-2,5,6,7-tetrahydro-1H-cyclopenta[b]pyridin-3-yl]amino}carbonyl)amino]-3-(3-isopropoxyphenyl)propanoic acid]

- IC50 (Table 4, 30 minutes at 37° C.): 1600 nM
SMILES: O=C(O)C[C@H](NC(=O)Nc1cccn(Cc2cccs2)c1=O)c1ccc(F)cc1

- IC50 [2]: 15 nM
SMILES: Cc1cn(Cc2ccccc2Cl)c(=O)c(NC(=O)N[C@@H](CC(=O)O)c2ccccc2)c1O

- IC50 (Table 6, 30 minutes at 37° C.): 40 nM
SMILES: Cc1ccc([C@H](CC(=O)O)NC(=O)Nc2c(O)c(C)c(C)n(Cc3ccccc3Cl)c2=O)cc1C

- IC50 [2]: 5 nM
SMILES: O=C(O)CC(NC(=O)Nc1c(O)c2c(n(Cc3ccccc3Cl)c1=O)CCC2)c1ccco1 (centres unmarked)

- IC50 (Table 6, 30 minutes at 37° C.): 1500 nM
SMILES: Cc1ccc([C@H](CC(=O)O)NC(=O)Nc2c(O)c(C)cn([C@@H](C)c3ccccc3)c2=O)cc1

- IC50 [2]: 8 nM
SMILES: O=C(O)C[C@H](NC(=O)Nc1c(O)c2c(n(Cc3ccccc3Cl)c1=O)CCC2)c1cccc(O)c1

- IC50 (Table 3, 30 minutes at 37° C.): 10 nM
SMILES: Cc1ccc([C@H](CC(=O)O)NC(=O)Nc2c(O)ccn(Cc3c(F)cccc3Cl)c2=O)cc1 [(3S)-3-{[({1-[(2-chloro-6-fluorophenyl)methyl]-4-hydroxy-2-oxo-1,2-dihydro-3-pyridinyl}amino)carbonyl]amino}-3-(4-methylphenyl)propanoic acid]

- IC50 [2]: 22 nM
SMILES: CCCc1cn(Cc2c(Cl)cccc2OCC)c(=O)c(NC(=O)N[C@@H](CC(=O)O)c2cccc(OC(C)C)c2)c1O

- IC50 [1]: 13 nM
SMILES: Cc1ccc([C@H](CC(=O)O)NC(=O)Nc2c(O)ccn(Cc3c(Cl)cccc3Cl)c2=O)cc1

- IC50 (Table 4, 30 minutes at 37° C.): 600 nM
SMILES: Cc1ccc([C@H](CC(=O)O)NC(=O)Nc2cccn(Cc3cccs3)c2=O)cc1

- IC50 [1]: 30 nM
SMILES: CCCc1cn(Cc2ccc(Cl)cc2)c(=O)c(NC(=O)N[C@@H](CC(=O)O)c2cccc(OCC)c2)c1O

- IC50 (Table 4, 30 minutes at 37° C.): 100 nM
SMILES: COc1ccc([C@H](CC(=O)O)NC(=O)Nc2cccn(Cc3ccccc3Cl)c2=O)cc1

- IC50 [1]: 8 nM
SMILES: Cc1ccc([C@H](CC(=O)O)NC(=O)Nc2c(O)ccn(Cc3c(F)cccc3F)c2=O)cc1 [(3S)-3-[({[1-(2,6-difluorobenzyl)-4-hydroxy-2-oxo-1,2-dihydropyridin-3-yl]amino}carbonyl)amino]-3-(4-methylphenyl)propanoic acid]

- IC50 [2]: 10 nM
SMILES: O=C(O)C[C@H](NC(=O)Nc1c(O)c2c(n(Cc3ccccc3Cl)c1=O)CCC2)c1cccc(C(F)(F)F)c1

- IC50 (Table 6, 30 minutes at 37° C.): 10 nM
SMILES: Cc1cn(Cc2ccccc2Cl)c(=O)c(NC(=O)N[C@@H](CC(=O)O)c2cccc(OC(F)(F)F)c2)c1O
